pIC50: −log10 of the molar value.
Molecular target: T1, ANO1 (Homo sapiens, UniProt Q5XXA6)
T1 sequence (Q5XXA6 1-986): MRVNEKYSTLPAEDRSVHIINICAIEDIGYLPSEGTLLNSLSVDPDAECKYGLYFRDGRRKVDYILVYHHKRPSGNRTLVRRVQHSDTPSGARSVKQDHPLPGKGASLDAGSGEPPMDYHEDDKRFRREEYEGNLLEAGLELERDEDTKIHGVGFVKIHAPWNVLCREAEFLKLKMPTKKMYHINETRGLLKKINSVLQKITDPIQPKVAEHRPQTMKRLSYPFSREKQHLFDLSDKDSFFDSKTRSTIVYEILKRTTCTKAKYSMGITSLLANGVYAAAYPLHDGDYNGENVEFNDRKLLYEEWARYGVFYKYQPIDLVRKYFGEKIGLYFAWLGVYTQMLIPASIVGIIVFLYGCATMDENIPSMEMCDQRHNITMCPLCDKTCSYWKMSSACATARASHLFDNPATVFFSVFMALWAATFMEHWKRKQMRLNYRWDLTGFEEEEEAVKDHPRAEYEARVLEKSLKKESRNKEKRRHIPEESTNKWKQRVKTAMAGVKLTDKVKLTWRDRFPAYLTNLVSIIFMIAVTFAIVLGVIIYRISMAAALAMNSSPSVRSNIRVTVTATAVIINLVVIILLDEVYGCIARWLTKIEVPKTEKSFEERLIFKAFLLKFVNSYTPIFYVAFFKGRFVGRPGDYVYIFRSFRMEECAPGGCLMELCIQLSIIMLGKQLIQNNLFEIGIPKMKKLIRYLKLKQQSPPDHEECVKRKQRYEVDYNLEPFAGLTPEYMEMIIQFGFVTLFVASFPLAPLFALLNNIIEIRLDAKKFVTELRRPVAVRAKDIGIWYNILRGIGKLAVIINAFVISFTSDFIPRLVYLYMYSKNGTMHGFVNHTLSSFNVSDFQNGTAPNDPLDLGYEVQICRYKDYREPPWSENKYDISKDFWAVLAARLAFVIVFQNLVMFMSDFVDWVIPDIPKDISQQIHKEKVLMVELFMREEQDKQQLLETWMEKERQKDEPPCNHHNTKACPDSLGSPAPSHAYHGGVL
Assay: YFP fluorescence quenching in FRT cells expressing human ANO1; also Ussing chamber and whole-cell patch clamp in HEK293T
Format: cell-based

Row | SMILES | pIC50
1 | Oc1ccc(/C=C\c2cc(O)cc(O)c2)cc1 [cis-resveratrol] | 4.97
2 | Oc1ccc(/C=C/c2cc(O)cc(O)c2)cc1 [trans-resveratrol] | 3.99
